Experimental findings from patent publication US10870647B2, “Imidazopyridine derivative, method for preparing same, and pharmaceutical composition containing same as active ingredient for preventing or treating cancer” (DAEGU-GYEONGBUK MEDICAL INNOVATION FOUNDATION, priority 2016, dated 2020) are described below.

The structures appear in SMILES notation.

Common to all, as to assay: Kinase selectivity, scanMAX Kinase assay panel (DiscoverX), % control at 1 uM
What all share (format): binding

Assay [1] deals with T1, scanMAX Kinase assay panel (Homo sapiens, UniProt Q12852).
T1 construct: purchased DiscoverX
T1 sequence (Q12852 1-859): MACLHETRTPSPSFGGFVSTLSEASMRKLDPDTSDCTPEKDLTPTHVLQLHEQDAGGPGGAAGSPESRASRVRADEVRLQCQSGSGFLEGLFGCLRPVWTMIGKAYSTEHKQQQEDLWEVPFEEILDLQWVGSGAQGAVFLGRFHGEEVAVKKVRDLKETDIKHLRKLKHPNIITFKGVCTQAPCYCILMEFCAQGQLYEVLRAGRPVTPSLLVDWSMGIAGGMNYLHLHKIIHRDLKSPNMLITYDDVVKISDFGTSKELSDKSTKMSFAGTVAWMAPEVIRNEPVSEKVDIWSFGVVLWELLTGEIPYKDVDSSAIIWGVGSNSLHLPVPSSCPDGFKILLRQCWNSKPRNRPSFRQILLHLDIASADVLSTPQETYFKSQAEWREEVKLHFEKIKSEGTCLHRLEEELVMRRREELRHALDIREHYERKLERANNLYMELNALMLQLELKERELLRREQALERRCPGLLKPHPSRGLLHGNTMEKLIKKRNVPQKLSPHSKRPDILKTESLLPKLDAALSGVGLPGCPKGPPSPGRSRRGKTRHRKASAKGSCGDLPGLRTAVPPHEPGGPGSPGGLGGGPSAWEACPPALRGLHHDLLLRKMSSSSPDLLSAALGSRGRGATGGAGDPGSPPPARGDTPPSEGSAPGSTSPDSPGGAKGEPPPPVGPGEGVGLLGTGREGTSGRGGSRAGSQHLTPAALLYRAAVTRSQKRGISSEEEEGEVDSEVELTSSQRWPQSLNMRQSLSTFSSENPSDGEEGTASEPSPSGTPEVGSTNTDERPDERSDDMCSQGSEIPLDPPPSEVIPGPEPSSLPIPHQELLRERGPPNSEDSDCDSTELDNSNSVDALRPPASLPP
The settings on record: DLK; 1 uM; read-out: Percent Control (%). The method in brief:
(§1)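 Each kinase was first exposed to the test compound at 1 uM in DMSO. Signal was then normalised to positive and negative controls to give % control. Finally, any enzyme showing <35% control was judged inhibited.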

Assay [2] addresses T2, scanMAX Kinase assay panel (Homo sapiens, UniProt Q8TD19).
T2 construct: purchased DiscoverX
T2 sequence (Q8TD19 1-979): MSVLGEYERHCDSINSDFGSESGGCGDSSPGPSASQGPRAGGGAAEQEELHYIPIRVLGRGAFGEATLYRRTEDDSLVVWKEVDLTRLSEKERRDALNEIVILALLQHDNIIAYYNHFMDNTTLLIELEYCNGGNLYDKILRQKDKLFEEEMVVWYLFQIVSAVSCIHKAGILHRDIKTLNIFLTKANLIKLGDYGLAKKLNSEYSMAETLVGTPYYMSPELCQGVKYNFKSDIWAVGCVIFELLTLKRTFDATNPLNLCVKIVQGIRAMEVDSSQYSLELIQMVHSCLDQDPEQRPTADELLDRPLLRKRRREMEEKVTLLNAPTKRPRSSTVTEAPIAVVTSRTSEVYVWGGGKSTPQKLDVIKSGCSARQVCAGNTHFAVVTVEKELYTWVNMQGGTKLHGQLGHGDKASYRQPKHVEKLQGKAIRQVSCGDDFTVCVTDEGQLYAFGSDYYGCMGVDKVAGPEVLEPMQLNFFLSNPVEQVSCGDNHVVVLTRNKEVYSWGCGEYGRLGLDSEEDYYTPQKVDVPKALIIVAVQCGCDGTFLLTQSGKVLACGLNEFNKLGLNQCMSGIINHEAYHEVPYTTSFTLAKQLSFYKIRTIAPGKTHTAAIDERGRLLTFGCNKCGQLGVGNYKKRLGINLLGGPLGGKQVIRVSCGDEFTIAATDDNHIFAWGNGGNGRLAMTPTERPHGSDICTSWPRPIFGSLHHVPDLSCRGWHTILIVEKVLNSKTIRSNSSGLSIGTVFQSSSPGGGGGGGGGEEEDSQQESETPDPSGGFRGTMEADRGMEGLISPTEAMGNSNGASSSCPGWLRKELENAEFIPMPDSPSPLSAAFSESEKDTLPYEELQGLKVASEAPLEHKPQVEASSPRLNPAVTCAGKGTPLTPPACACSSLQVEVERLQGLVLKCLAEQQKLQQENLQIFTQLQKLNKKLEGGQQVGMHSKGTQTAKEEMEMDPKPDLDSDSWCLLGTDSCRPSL
As to conditions: NEK9; 1 uM; read-out: Percent Control (%). The method in brief: as §1

The target in assay [3] is T3, scanMAX Kinase assay panel (Homo sapiens, UniProt O00750).
T3 construct: purchased DiscoverX
As to conditions: PIK3C2B; 1 uM; read-out: Percent Control (%). In a few lines: as §1

Assay [4] deals with T4, scanMAX Kinase assay panel (Homo sapiens, UniProt Q14289).
T4 construct: purchased DiscoverX
The settings on record: PYK2; 1 uM; read-out: Percent Control (%). The method in brief: as §1

Assay [5] concerns the target T5, scanMAX Kinase assay panel (Homo sapiens, UniProt O14757).
T5 construct: purchased DiscoverX
T5 sequence (O14757 1-476): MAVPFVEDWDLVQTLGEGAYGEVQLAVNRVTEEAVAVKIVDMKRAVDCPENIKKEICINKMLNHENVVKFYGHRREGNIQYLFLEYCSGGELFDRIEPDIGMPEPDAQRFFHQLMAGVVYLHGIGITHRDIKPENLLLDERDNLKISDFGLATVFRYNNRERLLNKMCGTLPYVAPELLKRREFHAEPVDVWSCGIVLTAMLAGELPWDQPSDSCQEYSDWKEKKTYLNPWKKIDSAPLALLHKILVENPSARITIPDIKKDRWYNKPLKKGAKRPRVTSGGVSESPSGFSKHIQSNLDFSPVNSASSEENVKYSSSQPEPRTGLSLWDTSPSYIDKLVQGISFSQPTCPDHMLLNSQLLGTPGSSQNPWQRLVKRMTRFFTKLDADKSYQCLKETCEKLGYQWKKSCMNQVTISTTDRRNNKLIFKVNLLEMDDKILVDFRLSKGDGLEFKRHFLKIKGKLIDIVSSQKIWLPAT
The settings on record: CHEK1; 1 uM; read-out: Percent Control (%). The method in brief:
as §1

T4 sequence (Q14289 whole entry): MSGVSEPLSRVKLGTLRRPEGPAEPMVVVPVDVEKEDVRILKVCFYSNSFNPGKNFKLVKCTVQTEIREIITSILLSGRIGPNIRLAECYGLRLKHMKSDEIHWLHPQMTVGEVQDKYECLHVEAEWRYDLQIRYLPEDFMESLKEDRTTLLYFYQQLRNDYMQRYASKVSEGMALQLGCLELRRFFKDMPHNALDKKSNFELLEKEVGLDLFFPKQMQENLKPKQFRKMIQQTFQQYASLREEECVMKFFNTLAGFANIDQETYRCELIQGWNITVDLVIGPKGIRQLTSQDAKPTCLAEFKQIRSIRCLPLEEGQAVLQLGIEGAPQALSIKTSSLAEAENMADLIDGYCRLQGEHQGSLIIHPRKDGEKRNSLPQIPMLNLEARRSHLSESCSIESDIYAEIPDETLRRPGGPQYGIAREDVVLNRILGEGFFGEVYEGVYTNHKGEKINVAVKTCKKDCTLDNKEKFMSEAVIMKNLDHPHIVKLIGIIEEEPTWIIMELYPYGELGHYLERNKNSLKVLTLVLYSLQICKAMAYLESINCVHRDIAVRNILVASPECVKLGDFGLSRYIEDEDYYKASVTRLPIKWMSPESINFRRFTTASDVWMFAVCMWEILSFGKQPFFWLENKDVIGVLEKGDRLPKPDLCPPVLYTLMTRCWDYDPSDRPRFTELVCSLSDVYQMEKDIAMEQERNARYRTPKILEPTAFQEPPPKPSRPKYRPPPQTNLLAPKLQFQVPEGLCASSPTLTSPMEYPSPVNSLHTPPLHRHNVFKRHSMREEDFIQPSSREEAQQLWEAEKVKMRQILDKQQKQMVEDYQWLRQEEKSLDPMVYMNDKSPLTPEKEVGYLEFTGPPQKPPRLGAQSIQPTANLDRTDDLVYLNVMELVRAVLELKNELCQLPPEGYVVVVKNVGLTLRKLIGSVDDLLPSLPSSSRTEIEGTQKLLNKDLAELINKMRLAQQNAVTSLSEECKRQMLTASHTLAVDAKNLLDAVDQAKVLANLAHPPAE
T3 sequence (O00750 whole entry): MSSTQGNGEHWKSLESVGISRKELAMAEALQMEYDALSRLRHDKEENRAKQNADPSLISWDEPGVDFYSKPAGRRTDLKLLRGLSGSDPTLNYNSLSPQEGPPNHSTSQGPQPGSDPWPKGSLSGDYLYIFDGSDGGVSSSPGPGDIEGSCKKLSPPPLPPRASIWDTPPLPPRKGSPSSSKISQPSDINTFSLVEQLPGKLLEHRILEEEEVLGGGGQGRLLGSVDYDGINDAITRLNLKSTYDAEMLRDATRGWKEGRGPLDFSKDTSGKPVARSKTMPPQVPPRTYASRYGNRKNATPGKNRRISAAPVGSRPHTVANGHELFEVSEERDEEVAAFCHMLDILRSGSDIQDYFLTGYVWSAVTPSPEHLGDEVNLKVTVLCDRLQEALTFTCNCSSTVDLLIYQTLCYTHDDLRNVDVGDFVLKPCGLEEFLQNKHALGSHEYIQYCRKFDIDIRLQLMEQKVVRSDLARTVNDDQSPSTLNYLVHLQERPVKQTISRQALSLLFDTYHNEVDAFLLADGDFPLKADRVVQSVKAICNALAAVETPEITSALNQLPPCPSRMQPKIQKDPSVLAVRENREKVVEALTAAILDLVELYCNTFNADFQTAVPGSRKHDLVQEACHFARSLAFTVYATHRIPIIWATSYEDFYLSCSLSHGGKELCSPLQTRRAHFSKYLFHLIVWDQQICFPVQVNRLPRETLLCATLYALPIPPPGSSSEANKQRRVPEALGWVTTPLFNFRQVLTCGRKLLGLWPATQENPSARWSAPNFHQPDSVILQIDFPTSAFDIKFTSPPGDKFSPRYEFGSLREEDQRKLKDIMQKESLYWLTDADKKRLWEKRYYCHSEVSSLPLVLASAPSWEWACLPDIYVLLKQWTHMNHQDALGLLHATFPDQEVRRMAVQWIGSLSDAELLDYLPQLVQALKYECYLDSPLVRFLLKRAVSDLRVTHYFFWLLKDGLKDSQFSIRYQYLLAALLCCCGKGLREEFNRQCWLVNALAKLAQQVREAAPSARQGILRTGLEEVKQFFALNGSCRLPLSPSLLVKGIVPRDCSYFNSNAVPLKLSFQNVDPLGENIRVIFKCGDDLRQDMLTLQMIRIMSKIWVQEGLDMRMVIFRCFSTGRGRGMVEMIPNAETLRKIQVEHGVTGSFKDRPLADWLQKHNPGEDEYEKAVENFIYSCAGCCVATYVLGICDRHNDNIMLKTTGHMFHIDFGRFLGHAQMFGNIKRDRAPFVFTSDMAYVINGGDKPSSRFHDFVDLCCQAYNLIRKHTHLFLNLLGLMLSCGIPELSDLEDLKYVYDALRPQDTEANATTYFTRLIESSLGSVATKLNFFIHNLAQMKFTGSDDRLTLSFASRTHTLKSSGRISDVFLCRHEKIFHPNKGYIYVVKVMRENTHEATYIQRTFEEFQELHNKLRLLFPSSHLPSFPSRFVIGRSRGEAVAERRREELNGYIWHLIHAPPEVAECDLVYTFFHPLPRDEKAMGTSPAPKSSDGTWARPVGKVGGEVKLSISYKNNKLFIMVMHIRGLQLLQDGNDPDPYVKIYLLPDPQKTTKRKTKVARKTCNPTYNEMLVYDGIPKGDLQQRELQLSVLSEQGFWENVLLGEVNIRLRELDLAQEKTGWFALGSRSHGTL

For `Cc1ccc(C(=O)Nc2ccc(CN3CCN(C)CC3)c(C(F)(F)F)c2)cc1C#Cc1cnc2c(Nc3cnn(C)c3)cccn12` [Example 1, 4-methyl-3-((8-((1-methyl-1H-pyrazol-4-yl)amino)imidazo[1,2-a]pyridin-3-yl)ethynyl)-N-(4-((4-methylpiperazin-1-yl)methyl)-3-(trifluoromethyl)phenyl)benzamide], the remaining binding at 1 µM in assay [1] was 29%; in assay [2], 6%; in assay [3], 100%; in assay [4], 4%; in assay [5], 90%.
For `Cc1ccc(NC(=O)C2(C(=O)Nc3ccc(F)cc3)CC2)cc1C#Cc1cnc2c(Nc3cnn(C(C)C)c3)cccn12` [Example 78], the remaining binding at 1 µM was 100% in assay [1]; 100% in assay [2]; 100% in assay [3]; 100% in assay [4]; 98% in assay [5].
Take `Cc1cn(-c2cc(NC(=O)c3ccc(C)c(C#Cc4cnc5c(Nc6cnn(C)c6)cccn45)c3)cc(C(F)(F)F)c2)cn1` [Example 12, 4-methyl-N-(3-(4-methyl-1H-imidazol-1-yl)-5-(trifluoromethyl)phenyl)-3-((8-((1-methyl-1H-pyrazol-4-yl)amino)imidazo[1,2-a]pyridin-3-yl)ethynyl)benzamide]: the remaining binding at 1 µM in assay [1] amounted to 100%; in assay [2], 86%; in assay [3] it was 91%; in assay [4] it was 29%; in assay [5], 100%.
